Data: US20150315188A1, “COMPOUNDS AND METHODS FOR TREATMENT OF HYPERTENSION” (MEDIVATION TECHNOLOGIES, INC., priority 2012, published 2015)

Key:
Set-up in all cases: purchased Milipore (Millipore)
[1] = target: T1, Human adrenergic α2B receptor (Homo sapiens, UniProt P18089); assay: Radioligand binding, adrenergic α2B (Protocol Group B); conditions: Protocol Group B; for Percentage inhibition of ligand binding, Adrenergic α2B (10 nM) / inhibition at 0.01 µM: 10 nM compound; for Percentage inhibition of ligand binding, Adrenergic α2B (10 nM): 0.01 µM; for Percentage inhibition of ligand binding, Adrenergic α2B (30 nM): 0.03 µM; for inhibition at 0.01 µM: read-out: Percentage inhibition of ligand binding, Adrenergic α2B (10 nM)
T1 sequence (P18089 1-450): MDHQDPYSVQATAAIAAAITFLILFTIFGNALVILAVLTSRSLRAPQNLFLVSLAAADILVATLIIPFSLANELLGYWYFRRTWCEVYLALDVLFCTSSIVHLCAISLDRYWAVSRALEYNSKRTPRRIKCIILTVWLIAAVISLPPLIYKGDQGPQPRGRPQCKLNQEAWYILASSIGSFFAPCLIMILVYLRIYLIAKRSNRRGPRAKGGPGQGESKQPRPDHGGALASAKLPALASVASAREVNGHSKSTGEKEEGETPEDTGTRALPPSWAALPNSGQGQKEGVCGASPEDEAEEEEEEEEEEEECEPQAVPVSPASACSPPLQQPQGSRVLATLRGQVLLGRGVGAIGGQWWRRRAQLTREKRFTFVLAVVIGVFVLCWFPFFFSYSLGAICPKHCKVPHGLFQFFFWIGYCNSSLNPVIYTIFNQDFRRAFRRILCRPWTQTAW
Summary of the method: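 Compounds at various concentrations in 1% DMSO were tested on recombinant membranes in Tris-HCl pH 7.4 buffer containing MgCl2, CaCl2 and 0.2% BSA.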

[2] = target: T2, Human adrenergic α2A receptor (Homo sapiens, UniProt P08913); assay: Radioligand binding, adrenergic α2A (Protocol Group B); conditions: Protocol Group B; for Percentage inhibition of ligand binding, Adrenergic α2A (0.1 μM) / inhibition at 0.1 µM: 0.1 μM compound; for inhibition at 0.1 µM: read-out: Percentage inhibition of ligand binding, Adrenergic α2A (0.1 μM)
T2 sequence (P08913 1-465): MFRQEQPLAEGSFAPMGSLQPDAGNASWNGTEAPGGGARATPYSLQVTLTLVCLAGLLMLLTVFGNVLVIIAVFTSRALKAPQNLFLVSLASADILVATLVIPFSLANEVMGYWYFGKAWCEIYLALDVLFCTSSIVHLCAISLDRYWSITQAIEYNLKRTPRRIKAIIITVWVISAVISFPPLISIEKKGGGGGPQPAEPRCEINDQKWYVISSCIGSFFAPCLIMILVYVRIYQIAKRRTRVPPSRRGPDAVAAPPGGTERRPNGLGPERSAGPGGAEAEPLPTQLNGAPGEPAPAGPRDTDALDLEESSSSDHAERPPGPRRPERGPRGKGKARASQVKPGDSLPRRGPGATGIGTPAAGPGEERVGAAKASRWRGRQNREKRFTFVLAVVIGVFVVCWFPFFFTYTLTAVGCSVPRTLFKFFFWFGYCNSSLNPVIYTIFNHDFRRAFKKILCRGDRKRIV
Summary of the method: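 Compounds (1% DMSO vehicle, various concentrations) competed against 2 nM [^3H]MK-912 on recombinant receptor membranes for 60 min at 25° C, Tris-HCl pH 7.4 buffer with Mg2+, Ca2+, BSA. Bound radioligand filtered and counted; 10 μM rauwolscine set nonspecific binding. Values: percent inhibition of specific binding or estimated Ki.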

[3] = target: T3, Human adrenergic α1B receptor (Homo sapiens, UniProt P35368); assay: Radioligand binding, adrenergic α1B (Protocol Group B); conditions: Protocol Group B
T3 sequence (P35368 1-520): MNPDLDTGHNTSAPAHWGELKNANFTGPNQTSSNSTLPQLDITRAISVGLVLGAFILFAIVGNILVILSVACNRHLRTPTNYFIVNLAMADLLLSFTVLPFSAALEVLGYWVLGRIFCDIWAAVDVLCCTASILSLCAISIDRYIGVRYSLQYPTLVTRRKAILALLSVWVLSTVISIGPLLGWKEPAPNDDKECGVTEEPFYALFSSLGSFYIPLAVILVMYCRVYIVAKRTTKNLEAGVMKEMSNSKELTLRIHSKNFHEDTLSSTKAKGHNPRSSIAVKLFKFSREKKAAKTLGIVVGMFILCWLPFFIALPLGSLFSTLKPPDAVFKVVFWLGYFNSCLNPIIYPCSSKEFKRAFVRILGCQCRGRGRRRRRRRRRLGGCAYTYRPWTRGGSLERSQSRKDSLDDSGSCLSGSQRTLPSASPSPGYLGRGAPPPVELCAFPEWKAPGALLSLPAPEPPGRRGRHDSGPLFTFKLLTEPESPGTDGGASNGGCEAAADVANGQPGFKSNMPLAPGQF
Summary of the method: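 Values are percent inhibition of specific [3H]prazosin (0.3 nM) binding or estimated Ki, from filtration counting. Human α1B recombinant membranes, Tris-HCl pH 7.4 buffer with MgCl2 and EDTA, 60 min at 25 °C, 1% DMSO vehicle; 10 μM prazosin defined nonspecific binding.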

Structure (SMILES)	Percentage inhibition of ligand binding, Adrenergic α2B (30 nM) ([1]; 30 nM compound) [%]	Percentage inhibition of ligand binding, Adrenergic α2A (0.1 μM) [2] [%]	Percentage inhibition of ligand binding, Adrenergic α2A (0.3 μM) ([2]; 0.3 μM compound) [%]	Percentage inhibition of ligand binding, Adrenergic α1B (0.1 μM) ([3]; 0.1 μM compound) [%]	Percentage inhibition of ligand binding, Adrenergic α1B (0.3 μM) ([3]; 0.3 μM compound) [%]	also measured
Cc1cc(F)c2c(c1)c1c(n2CC(C)(O)c2ccncc2)CC2CCCN2C1 (single isomer, unassigned) [62b]	32	16	26	2	21	Percentage inhibition of ligand binding, Adrenergic α2B (10 nM) [1]: 12%; Percentage inhibition of ligand binding, Adrenergic α2B (0.1 μM) ([1]; 0.1 μM compound): 62%
Cc1cc(F)cc2c3c(n(CC(O)c4ccncc4)c12)CCN1CCCC31 (single isomer, unassigned) [136c]	9	3	–	0	–	–
Cc1cc(F)c2c(c1)c1c(n2CC(C)(O)c2ccncc2)CC2CCCN2C1 (single isomer, unassigned) [62d]	57	11	25	12	27	Percentage inhibition of ligand binding, Adrenergic α2B (10 nM) [1]: 21%; Percentage inhibition of ligand binding, Adrenergic α2B (0.1 μM) ([1]; 0.1 μM compound): 82%
Cc1cc(F)cc2c3c(n(CC(C)(O)c4ccncc4)c12)CCN1CCCC31 (single isomer, unassigned) [77a]	30	–	19	7	32	inhibition at 0.01 µM [1]: 12%; inhibition at 0.1 µM [2]: 3%
OC(Cn1c2c(c3cc(Cl)ccc31)C1CCCN1CC2)c1ccncc1 (single isomer, unassigned) [143d]	4	7	–	15	–	–
OC(Cn1c2c(c3cc(F)cc(F)c31)C1CCCN1CC2)c1ccncc1 (single isomer, unassigned) [144d]	1	1	–	1	–	–
Cc1ccc2c(c1)c1c(n2CC(C)(O)c2ccc(F)cc2)CN2CCC1C2 (single isomer, unassigned) [134a]	−8	−5	–	−6	–	–
Cc1ccc2c(c1)c1c(n2CC(C)(O)c2ccc(C(=O)N(C)CC3CC3)nc2)CCN(C)C1 (stereo not drawn) [compound 33, N-(cyclopropylmethyl)-5-(1-(2,8-dimethyl-3,4-dihydro-1H-pyrido[4,3-b]indol-5(2H)-yl)-2-hydroxypropan-2-yl)-N-methylpicolinamide]	–	–	–	–	–	inhibition at 0.01 µM [1]: 6%; inhibition at 0.03 µM ([1]; 30 nM compound, read-out: Percentage inhibition of ligand binding, Adrenergic α2B (30 nM)): 8%; inhibition at 0.1 µM ([1]; 0.1 μM compound, read-out: Percentage inhibition of ligand binding, Adrenergic α2B (0.1 μM)): 38%; inhibition at 0.1 µM [2]: -10%; inhibition at 0.3 µM ([2]; 0.3 μM compound, read-out: Percentage inhibition of ligand binding, Adrenergic α2A (0.3 μM)): 4%; inhibition at 0.1 µM ([3]; 0.1 μM compound, read-out: Percentage inhibition of ligand binding, Adrenergic α1B (0.1 μM)): -12%; inhibition at 0.3 µM ([3]; 0.3 μM compound, read-out: Percentage inhibition of ligand binding, Adrenergic α1B (0.3 μM)): -1%
